Results from patent US11629143B2, “HipK4 inhibitors and uses thereof” (Vibliome Therapeutics, LLC, priority 2020, dated 2023).

Tests used:
Experiment in all cases: Kinase panel (mobility shift)
Assay type in all cases: biochemical
[1] = target: T1, EPH-A8 (Homo sapiens, UniProt P29322)
T1 sequence (P29322 28-1005): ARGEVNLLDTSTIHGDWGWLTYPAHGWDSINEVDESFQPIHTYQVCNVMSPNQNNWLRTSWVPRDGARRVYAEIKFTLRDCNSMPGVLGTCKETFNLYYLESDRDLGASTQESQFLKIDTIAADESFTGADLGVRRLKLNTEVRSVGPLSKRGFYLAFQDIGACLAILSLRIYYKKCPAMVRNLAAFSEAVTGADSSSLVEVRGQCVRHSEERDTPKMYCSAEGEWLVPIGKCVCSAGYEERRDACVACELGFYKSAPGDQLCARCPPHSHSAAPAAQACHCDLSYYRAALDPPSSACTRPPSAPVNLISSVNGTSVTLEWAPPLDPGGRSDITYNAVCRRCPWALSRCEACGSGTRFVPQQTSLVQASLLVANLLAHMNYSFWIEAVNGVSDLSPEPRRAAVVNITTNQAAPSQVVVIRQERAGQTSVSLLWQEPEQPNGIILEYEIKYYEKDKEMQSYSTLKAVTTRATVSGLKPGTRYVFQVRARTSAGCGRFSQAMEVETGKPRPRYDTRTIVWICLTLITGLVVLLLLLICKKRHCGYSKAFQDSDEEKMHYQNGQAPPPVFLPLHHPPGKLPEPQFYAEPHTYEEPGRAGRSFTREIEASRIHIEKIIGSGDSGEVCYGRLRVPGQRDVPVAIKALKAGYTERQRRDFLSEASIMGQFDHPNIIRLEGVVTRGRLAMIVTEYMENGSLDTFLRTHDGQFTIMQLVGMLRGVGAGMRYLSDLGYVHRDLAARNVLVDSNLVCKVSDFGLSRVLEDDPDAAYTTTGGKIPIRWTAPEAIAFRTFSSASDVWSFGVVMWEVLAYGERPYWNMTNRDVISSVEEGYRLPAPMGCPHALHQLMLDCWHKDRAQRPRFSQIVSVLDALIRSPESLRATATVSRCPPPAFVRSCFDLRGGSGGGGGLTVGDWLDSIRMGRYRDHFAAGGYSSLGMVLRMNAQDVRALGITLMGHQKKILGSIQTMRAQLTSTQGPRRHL
Summary of the method: (§1)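 Each kinase was incubated with a fluorescently labeled substrate and compound in a standard reaction mix. After the reaction was stopped, product and substrate were separated on microfluidic chips by electrophoretic mobility shift. Activity came from comparing product and substrate peak fluorescence, graded A (95% or greater), B (90%-94%) or C (80%-89%) at 5 um.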

[2] = target: T2, MUSK (Homo sapiens, UniProt O15146)
T2 sequence (O15146 24-869): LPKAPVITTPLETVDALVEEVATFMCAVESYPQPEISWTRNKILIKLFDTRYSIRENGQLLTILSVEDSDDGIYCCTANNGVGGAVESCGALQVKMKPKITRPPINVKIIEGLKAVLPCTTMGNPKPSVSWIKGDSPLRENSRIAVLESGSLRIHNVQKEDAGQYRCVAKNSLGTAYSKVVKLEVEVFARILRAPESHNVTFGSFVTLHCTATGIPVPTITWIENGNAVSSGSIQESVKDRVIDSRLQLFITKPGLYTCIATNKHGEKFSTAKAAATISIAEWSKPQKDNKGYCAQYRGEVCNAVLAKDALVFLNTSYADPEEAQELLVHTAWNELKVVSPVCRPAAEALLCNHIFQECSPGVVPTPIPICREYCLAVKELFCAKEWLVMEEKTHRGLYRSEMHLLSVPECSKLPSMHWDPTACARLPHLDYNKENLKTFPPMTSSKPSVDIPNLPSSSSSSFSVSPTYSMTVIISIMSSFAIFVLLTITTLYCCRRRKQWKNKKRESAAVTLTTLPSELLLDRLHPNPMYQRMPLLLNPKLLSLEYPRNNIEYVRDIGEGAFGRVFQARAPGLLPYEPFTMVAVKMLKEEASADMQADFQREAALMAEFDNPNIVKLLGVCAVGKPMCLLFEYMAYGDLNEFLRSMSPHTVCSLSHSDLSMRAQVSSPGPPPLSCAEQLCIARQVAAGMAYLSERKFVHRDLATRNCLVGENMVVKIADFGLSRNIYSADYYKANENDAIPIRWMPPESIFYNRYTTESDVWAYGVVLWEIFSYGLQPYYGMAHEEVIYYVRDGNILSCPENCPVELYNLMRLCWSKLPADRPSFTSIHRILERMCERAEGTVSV
Summary of the method: as §1

[3] = target: T3, EPH-B4 (Homo sapiens, UniProt P54760)
T3 sequence (P54760 16-987): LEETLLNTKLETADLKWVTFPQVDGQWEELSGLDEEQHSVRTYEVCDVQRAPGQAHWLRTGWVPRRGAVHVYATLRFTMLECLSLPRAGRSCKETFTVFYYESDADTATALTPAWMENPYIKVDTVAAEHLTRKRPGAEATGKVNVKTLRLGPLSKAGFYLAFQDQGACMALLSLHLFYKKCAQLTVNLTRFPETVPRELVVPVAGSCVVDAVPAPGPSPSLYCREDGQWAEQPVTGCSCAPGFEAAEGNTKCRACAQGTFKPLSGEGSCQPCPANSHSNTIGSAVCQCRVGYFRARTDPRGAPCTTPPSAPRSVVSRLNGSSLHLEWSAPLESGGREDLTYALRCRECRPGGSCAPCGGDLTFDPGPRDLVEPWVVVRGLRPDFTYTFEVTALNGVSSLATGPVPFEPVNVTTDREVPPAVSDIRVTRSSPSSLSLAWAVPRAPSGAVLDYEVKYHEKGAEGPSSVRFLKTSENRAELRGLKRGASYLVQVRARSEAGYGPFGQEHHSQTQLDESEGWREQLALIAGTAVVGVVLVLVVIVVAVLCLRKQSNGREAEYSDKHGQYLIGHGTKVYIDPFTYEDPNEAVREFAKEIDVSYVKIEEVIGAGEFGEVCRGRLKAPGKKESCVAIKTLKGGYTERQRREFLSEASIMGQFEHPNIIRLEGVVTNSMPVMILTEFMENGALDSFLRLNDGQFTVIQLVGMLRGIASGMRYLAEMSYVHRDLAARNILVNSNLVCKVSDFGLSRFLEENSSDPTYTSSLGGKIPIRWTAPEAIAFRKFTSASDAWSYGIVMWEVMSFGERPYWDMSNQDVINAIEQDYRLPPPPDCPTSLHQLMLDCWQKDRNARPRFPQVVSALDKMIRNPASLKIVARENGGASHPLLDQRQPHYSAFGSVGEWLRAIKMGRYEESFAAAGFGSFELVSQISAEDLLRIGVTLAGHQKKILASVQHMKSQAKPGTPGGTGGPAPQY
Summary of the method: as §1

SMILES | inhibition at 5 µM [1] | inhibition at 5 µM [2] | inhibition at 5 µM [3]
[2H]C([2H])([2H])NC(=O)c1cc(Oc2ccc(NC(=O)c3nc(SC)oc3-c3ccc(F)c(F)c3)cc2F)ccn1 [Compound 33] | < 50% | < 50% | < 50%
[2H]C([2H])([2H])NC(=O)c1cc(Oc2ccc(NC(=O)c3nc(SC)oc3-c3ccc(F)s3)cc2F)ccn1 [Compound 35] | < 50% | < 50% | < 50%
CSc1nc(C(=O)Nc2ccc(Oc3ccnc(C(=O)NC4COC4)c3)c(F)c2)c(-c2ccc(F)cc2)o1 [Compound 31] | < 50% | < 50% | < 50%
CNC(=O)c1cc(Oc2ccc(NC(=O)c3nc(OC)oc3-c3ccc(F)s3)cc2F)ccn1 [Compound 25] | < 50% | < 50% | < 50%
CNC(=O)c1cc(Oc2ccc(NC(=O)c3nc(SC)oc3-c3ccc(F)cc3Cl)cc2)ccn1 [Compound 3] | 50 to 79% | 50 to 79% | < 50%
CNC(=O)c1cc(Oc2ccc(NC(=O)c3nc(S(C)(=O)=O)sc3-c3ccc(F)cc3)cc2F)ccn1 [Compound 13] | 80 to 89% | 50 to 79% | 50 to 79%

Results, then the compound that gave them:

inhibition at 5 µM [1] | inhibition at 5 µM [2] | inhibition at 5 µM [3] | SMILES
50 to 79% | < 50% | < 50% | CSc1nc(C(=O)Nc2ccc(Oc3ccnc(C(=O)NC4CNC4)c3)c(F)c2)c(-c2ccc(F)cc2)o1 [Compound 29]
< 50% | < 50% | < 50% | CSc1nc(C(=O)Nc2ccc(Oc3ccnc(C(=O)NCC(F)(F)F)c3)c(F)c2)c(-c2ccc(F)cc2)o1 [Compound 40]
< 50% | < 50% | < 50% | COc1nc(C(=O)Nc2ccc(Oc3ccnc(C(=O)NC4COC4)c3)c(F)c2)c(-c2ccc(F)cc2)o1 [Compound 39]
< 50% | < 50% | < 50% | COc1nc(C(=O)Nc2ccc(Oc3ccnc(C(=O)NCC(F)(F)F)c3)c(F)c2)c(-c2ccc(F)cc2)o1 [Compound 43]
50 to 79% | 50 to 79% | 50 to 79% | CNC(=O)c1cc(Oc2ccc(NC(=O)c3nc(NC)oc3-c3ccc(F)cc3)cc2F)ccn1 [Compound 14]
